In assay [1] the target is T1, Peroxisomal acyl-coenzyme A oxidase 1 (Homo sapiens, UniProt Q15067).
T1 sequence (Q15067 whole entry): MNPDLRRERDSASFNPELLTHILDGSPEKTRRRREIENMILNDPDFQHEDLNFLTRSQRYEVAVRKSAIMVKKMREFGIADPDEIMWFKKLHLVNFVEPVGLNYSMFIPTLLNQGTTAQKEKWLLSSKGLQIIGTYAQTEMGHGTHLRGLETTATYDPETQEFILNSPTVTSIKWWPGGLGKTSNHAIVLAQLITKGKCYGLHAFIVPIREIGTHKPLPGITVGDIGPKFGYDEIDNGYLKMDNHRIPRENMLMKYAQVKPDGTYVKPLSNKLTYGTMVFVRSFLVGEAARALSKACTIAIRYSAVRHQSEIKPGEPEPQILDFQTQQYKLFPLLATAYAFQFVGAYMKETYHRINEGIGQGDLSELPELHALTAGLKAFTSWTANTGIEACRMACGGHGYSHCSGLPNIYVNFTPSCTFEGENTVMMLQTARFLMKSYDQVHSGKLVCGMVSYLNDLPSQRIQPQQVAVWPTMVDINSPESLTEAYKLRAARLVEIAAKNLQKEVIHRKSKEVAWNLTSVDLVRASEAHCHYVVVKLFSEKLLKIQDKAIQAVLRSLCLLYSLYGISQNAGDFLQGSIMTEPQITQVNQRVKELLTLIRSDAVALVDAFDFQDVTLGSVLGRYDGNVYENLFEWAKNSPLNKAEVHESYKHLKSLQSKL

Assay [2] addresses T2, Scaffold protein ILK (Homo sapiens, UniProt Q13418).
T2 sequence (Q13418 whole entry): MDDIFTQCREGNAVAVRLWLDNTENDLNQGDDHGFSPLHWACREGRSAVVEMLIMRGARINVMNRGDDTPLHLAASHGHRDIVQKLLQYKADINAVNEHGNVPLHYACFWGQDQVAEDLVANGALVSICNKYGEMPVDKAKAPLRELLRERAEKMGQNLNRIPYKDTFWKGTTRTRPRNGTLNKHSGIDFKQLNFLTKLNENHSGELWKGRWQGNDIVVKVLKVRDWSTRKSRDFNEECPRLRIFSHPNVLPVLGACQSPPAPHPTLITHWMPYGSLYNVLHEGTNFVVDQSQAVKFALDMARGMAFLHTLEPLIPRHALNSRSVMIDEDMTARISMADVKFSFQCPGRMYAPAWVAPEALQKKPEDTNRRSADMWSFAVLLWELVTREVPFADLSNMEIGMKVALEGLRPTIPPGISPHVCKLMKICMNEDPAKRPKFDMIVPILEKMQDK

In assay [3] the target is Ephrin type-A receptor 4 (Homo sapiens, UniProt P54764).
Sequence of Ephrin type-A receptor 4 (P54764 whole entry): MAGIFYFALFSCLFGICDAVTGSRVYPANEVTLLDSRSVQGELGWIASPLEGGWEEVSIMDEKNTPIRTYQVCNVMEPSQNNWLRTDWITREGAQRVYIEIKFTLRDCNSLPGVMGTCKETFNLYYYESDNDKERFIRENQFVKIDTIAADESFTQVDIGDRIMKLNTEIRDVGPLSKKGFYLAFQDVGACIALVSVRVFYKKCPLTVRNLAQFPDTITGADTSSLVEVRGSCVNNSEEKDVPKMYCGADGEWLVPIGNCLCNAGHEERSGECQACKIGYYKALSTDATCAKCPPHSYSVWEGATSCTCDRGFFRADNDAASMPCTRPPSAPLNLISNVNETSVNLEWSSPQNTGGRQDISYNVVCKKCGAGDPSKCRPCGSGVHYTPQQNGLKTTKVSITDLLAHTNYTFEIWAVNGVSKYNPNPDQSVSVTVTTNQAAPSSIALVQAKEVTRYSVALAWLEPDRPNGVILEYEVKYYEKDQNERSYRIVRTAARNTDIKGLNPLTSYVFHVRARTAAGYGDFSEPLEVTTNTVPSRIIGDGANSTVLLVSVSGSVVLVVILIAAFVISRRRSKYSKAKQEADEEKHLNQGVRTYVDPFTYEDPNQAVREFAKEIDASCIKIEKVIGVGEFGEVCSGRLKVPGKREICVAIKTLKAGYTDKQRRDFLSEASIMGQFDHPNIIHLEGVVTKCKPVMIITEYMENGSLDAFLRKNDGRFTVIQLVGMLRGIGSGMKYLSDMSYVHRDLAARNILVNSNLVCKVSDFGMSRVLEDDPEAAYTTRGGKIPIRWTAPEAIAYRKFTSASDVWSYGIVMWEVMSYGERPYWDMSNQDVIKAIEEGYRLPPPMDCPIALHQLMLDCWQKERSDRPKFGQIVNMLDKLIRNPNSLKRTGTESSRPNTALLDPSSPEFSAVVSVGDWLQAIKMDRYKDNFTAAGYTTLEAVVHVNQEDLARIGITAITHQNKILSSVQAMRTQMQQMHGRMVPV
The target in assay [4] is Aurora kinase B (Homo sapiens, UniProt Q96GD4).
Sequence of Aurora kinase B (Q96GD4 whole entry): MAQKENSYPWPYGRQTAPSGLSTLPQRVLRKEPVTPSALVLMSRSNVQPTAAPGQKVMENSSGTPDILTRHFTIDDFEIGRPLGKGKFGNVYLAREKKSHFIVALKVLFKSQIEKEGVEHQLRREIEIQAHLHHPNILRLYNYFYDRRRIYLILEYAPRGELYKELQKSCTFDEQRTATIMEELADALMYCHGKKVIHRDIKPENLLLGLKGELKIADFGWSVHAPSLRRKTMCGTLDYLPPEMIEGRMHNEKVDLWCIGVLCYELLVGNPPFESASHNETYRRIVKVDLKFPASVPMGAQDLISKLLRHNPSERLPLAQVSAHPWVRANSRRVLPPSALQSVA
For assay [5], the target named is T3, Serine/threonine-protein kinase ULK3 (Homo sapiens, UniProt Q6PHR2).
T3 sequence (Q6PHR2 whole entry): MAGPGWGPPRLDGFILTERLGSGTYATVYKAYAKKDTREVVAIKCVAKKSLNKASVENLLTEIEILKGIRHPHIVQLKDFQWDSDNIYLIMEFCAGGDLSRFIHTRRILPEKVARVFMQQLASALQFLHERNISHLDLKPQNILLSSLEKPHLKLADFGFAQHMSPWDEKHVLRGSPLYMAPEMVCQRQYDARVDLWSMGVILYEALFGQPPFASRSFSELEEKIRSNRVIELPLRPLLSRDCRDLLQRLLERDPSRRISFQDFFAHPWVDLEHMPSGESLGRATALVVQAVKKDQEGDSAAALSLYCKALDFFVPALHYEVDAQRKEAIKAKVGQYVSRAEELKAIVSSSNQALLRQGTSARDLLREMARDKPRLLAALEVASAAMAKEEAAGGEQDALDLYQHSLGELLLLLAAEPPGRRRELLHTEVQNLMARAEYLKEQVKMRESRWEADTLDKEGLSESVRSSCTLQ

Assay [6] deals with Tyrosine-protein kinase Lck (Homo sapiens, UniProt P06239).
Sequence of Tyrosine-protein kinase Lck (P06239 whole entry): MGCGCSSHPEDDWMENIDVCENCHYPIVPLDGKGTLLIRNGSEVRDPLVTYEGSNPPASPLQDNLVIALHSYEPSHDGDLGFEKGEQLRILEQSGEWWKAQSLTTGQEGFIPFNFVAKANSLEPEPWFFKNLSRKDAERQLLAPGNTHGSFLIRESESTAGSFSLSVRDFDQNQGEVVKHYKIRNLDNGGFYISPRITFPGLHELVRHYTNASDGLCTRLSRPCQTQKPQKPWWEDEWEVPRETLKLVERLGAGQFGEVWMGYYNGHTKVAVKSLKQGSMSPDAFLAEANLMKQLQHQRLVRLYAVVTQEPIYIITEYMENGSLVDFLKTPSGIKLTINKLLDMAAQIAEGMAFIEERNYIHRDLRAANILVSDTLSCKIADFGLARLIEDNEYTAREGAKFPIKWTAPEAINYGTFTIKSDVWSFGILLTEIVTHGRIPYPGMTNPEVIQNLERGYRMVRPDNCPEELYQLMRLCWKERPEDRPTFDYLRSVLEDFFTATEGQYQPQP
The target in assay [7] is Focal adhesion kinase 1 (Homo sapiens, UniProt Q05397).
Sequence of Focal adhesion kinase 1 (Q05397 whole entry): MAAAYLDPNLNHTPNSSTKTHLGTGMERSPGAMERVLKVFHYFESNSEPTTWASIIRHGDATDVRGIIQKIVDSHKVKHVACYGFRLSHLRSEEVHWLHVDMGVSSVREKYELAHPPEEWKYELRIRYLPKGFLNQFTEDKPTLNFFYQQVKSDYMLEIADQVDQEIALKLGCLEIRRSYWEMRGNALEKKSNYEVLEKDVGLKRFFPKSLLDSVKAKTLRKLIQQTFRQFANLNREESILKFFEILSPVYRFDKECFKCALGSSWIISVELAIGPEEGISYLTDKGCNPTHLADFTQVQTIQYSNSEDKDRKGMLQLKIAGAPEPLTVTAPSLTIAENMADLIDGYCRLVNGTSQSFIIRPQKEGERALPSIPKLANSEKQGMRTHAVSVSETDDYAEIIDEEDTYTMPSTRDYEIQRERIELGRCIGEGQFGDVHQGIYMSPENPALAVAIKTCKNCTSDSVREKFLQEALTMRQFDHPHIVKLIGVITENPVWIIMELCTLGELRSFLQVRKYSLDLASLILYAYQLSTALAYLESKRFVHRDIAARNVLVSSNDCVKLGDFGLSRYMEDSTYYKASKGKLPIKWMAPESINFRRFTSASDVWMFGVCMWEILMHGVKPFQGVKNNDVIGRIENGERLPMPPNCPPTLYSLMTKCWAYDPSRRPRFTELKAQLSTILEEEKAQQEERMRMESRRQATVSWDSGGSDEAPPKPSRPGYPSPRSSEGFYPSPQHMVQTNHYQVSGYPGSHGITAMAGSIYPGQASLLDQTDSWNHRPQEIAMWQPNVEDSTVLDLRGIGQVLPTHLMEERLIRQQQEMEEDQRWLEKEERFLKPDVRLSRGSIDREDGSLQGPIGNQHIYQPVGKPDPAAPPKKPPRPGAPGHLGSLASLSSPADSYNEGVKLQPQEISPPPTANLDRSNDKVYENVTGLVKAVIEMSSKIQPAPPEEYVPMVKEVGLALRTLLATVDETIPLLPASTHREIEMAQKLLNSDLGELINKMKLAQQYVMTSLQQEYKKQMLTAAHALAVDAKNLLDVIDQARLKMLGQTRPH
For assay [8], the target named is Serine/threonine-protein kinase B-raf (Homo sapiens, UniProt P15056).
Sequence of Serine/threonine-protein kinase B-raf (P15056 whole entry): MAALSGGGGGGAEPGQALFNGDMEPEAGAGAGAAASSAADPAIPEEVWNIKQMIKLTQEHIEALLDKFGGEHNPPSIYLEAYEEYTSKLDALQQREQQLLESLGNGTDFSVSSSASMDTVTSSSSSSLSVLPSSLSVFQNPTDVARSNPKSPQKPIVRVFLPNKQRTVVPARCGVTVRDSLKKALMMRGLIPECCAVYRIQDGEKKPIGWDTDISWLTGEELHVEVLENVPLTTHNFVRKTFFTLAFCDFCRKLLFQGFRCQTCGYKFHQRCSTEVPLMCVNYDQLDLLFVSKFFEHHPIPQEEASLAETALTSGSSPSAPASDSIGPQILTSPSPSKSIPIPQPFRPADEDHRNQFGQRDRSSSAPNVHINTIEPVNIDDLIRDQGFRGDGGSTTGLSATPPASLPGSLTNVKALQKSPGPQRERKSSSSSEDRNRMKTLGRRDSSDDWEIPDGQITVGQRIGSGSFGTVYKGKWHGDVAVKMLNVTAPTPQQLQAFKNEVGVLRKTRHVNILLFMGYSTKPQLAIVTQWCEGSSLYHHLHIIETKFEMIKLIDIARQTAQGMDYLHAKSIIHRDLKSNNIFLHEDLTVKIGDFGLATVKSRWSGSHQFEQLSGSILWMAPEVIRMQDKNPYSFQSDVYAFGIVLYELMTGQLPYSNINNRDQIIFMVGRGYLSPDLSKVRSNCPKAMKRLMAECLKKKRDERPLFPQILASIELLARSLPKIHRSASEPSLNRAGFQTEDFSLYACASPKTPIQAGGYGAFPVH
The target of assay [9] is T4, Acyl-CoA dehydrogenase family member 11 (Homo sapiens, UniProt Q709F0).
T4 sequence (Q709F0 whole entry): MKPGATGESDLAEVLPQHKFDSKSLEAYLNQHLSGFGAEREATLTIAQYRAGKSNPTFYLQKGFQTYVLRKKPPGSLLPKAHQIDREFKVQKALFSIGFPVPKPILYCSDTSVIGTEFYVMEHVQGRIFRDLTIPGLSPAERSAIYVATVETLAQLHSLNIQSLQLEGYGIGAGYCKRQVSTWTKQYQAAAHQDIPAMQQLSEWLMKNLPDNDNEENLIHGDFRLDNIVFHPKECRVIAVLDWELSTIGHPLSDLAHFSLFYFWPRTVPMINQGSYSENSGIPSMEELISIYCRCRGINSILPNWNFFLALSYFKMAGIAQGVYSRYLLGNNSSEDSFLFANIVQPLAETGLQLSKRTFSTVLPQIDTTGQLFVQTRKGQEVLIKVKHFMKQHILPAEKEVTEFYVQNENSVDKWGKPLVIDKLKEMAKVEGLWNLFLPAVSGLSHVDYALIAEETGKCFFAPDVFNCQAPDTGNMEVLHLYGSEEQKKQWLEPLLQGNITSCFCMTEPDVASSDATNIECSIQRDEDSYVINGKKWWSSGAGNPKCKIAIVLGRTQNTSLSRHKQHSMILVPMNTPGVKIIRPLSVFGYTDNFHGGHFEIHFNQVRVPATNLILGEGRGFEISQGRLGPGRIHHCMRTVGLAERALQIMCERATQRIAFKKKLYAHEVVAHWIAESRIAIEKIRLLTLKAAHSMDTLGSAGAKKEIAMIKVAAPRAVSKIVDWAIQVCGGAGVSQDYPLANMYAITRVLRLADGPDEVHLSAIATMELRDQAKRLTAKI

Active and inactive are the calls of the source. For most assays here, no stated cut-off is given here; in the data, actives have a measured Kd and inactives only a lower limit.

Among the data in ChEMBL document CHEMBL3991601, “The target landscape of clinical kinase drugs” (Science, 2017) are Kd values, retold here.

As usually defined, the Kd is the constant that tells how readily two partners part at equilibrium. With `CO[C@H]1C[C@@H]2CC[C@@H](C)[C@@](O)(O2)C(=O)C(=O)N2CCCC[C@H]2C(=O)O[C@H]([C@H](C)C[C@@H]2CC[C@@H](OCCO)[C@H](OC)C2)CC(=O)[C@H](C)/C=C(\C)[C@@H](O)[C@@H](OC)C(=O)[C@H](C)C[C@H](C)/C=C/C=C/C=C/1C` [EVEROLIMUS], the Kd in assay [1], in assay [2], in assay [3], in assay [4], in assay [5] and in [6] was > 30 µM (inactive) each time. Moreover, the Kd in [7], in assay [8] and in [9] was > 30 µM (inactive) in each case.
On to `CC(C)Nc1cc(-c2c[nH]c(C(=O)N[C@H](CO)c3cccc(Cl)c3)c2)c(Cl)cn1` [ULIXERTINIB], for which the Kd in assay [1], in [2], in assay [3], in [4], in [5] and in assay [6] was > 30 µM (inactive) throughout. In addition, the Kd in [7], in assay [8] and in assay [9] was > 30 µM (inactive) in each case.
For `O=C1NC(=O)/C(=C/c2ccc3nccc(-c4ccncc4)c3c2)S1` [GSK-1059615], the Kd in assay [1], in assay [2], in assay [3], in assay [4], in assay [5] and in assay [6] was > 30 µM (inactive) in each case. In addition, the Kd in [7], in [8] and in assay [9] was > 30 µM (inactive) each time.
Take `COc1cc(CCc2cc(NC(=O)c3ccc(N4C[C@@H](C)N[C@@H](C)C4)cc3)n[nH]2)cc(OC)c1` [AZD-4547]: the Kd is > 30 µM (inactive) in assay [1]; > 30 µM (inactive) in assay [2]; > 30 µM (inactive) in [3]; 1.67 µM in [4]; > 30 µM (inactive) in assay [5]; > 30 µM (inactive) in assay [6]. Besides, the Kd in assay [7], in assay [8] and in assay [9] was > 30 µM (inactive) each time.
`C[C@@H]1CN(Cc2ccc(F)cc2)[C@@H](C)CN1C(=O)c1cc2c(C(=O)C(=O)N(C)C)cn(C)c2cc1Cl` [TALMAPIMOD]: the Kd in assay [1], in assay [2], in [3], in assay [4], in assay [5] and in assay [6] was > 30 µM (inactive) each time. Moreover, the Kd in assay [7], in [8] and in assay [9] was > 30 µM (inactive) in each case.
For `CCS(=O)(=O)N1CC(CC#N)(n2cc(-c3ncnc4[nH]ccc34)cn2)C1` [BARICITINIB], the Kd in [1], in [2], in assay [3], in assay [4], in [5] and in assay [6] was > 30 µM (inactive) in each case. The Kd in assay [7], in assay [8] and in assay [9] was > 30 µM (inactive) each time.
As to `COc1ccc(-c2ccc3c(N4CCOC[C@@H]4C)nc(N4CCOC[C@@H]4C)nc3n2)cc1CO` [AZD-8055], the Kd in assay [1], in [2], in assay [3], in assay [4], in assay [5] and in [6] was > 30 µM (inactive) throughout. In addition, the Kd in assay [7], in [8] and in [9] was > 30 µM (inactive) each time.
For the compound `Cn1cc(-c2ccc3nnc(C(F)(F)c4ccc5ncccc5c4)n3n2)cn1` [JNJ-38877605], the Kd in [1], in assay [2], in assay [3], in assay [4], in assay [5] and in assay [6] was > 30 µM (inactive) in each case. Further, the Kd in [7], in assay [8] and in assay [9] was > 30 µM (inactive) each time.
Regarding `CNC(=O)c1ccc(-c2cnc3ncc(Cc4ccc5ncccc5c4)n3n2)cc1F` [CAPMATINIB], the Kd in assay [1], in assay [2], in [3], in assay [4], in assay [5] and in [6] was > 30 µM (inactive) each time. Further, the Kd in assay [7], in assay [8] and in [9] was > 30 µM (inactive) throughout.
With `CNC(=O)c1ccc(C)c(-n2c(C)cc(OCc3ccc(F)cc3F)c(Br)c2=O)c1` [PH-797804], the Kd in assay [1], in [2], in [3], in assay [4], in assay [5] and in assay [6] was > 30 µM (inactive) in each case. Besides, the Kd in [7], in assay [8] and in [9] was > 30 µM (inactive) in each case.
For the compound `C[C@@H](Nc1cc(F)cc(F)c1)c1cc(C(=O)N(C)C)cc2c(=O)cc(N3CCOCC3)oc12` [AZD-8186], the Kd in [1], in assay [2], in [3], in assay [4], in assay [5] and in assay [6] was > 30 µM (inactive) each time. Further, the Kd in [7], in [8] and in assay [9] was > 30 µM (inactive) throughout.
For the compound `COCCNCc1ccc(-c2cc3nccc(Oc4ccc(NC(=S)NC(=O)Cc5ccc(F)cc5)cc4F)c3s2)nc1` [GLESATINIB], the Kd was > 30 µM (inactive) in assay [2]; > 30 µM (inactive) in assay [3]; > 30 µM (inactive) in assay [4]; > 30 µM (inactive) in assay [5]; 0.092 µM (active) in [6]; > 30 µM (inactive) in assay [7]. Further, the Kd in [8] and in [9] was > 30 µM (inactive) each time.
